Test results: patent publication USRE37101E, “Stabilized phosphate ester-based functional fluid compositions” (Solutia Inc., priority 1997, dated 2001)

Key:
[1] = fresh or as designated
rats = settings: subchronic

CCCCOP(=O)(OCCCC)Oc1ccccc1 [DBPP, dibutyl phenyl phosphate, reference compound]
Independent Lab Cond. [1]: 0.008 μMHO/cm

CC(C)COP(=O)(OCC(C)C)OCC(C)C [TIBP, triisobutyl phosphate]
NOEL (rats; bladder hyperplasia, rats): 5000 ppm
Bladder Hyperplasia (finding) (rats; in rats >5000 ppm): None observed
Independent Lab Cond. [1]: 0.001 μMHO/cm
